Results as given in ChEMBL document CHEMBL2407042, “Investigation of the protein alkylation sites of the STAT3:STAT3 inhibitor Stattic by mass spectrometry” (Bioorg Med Chem Lett, 2013).
Activity calls are given as the source filed them. The calls are words filed in the database; no cut-off is given here.

Assays:
Homo sapiens [1] = species on record: Homo sapiens; test: Binding affinity to STAT3 beta (127 to 722) (unknown origin) expressed in Escherichia coli BL21 Rosetta at 50 uM treated for 1 hr prior to trypsin digestion measured after 24 hrs by LC-MS/MS analysis in presence of ammonium bicarbonate and N-octyl-glucoside
Homo sapiens [2] = species on record: Homo sapiens; test: Binding affinity to STAT3 beta (127 to 722) (unknown origin) expressed in Escherichia coli BL21 Rosetta at 50 uM after 1 hr by mass spectrophotometric analysis
Homo sapiens [3] = species on record: Homo sapiens; test: Binding affinity to STAT3 beta (127 to 722) (unknown origin) expressed in Escherichia coli BL21 Rosetta at 50 uM treated for 1 hr prior to trypsin digestion measured after 24 hrs by LC-MS/MS analysis in presence of ammonium bicarbonate
Homo sapiens [4] = species on record: Homo sapiens; test: Binding affinity to STAT3 beta (127 to 722) (unknown origin) expressed in Escherichia coli BL21 Rosetta at 50 uM treated for 1 hr prior to trypsin digestion measured after 24 hrs by LC-MS/MS analysis in presence of ammonium bicarbonate and acetonitrile
Homo sapiens [5] = species on record: Homo sapiens; test: Binding affinity to STAT3 beta (127 to 722) (unknown origin) expressed in Escherichia coli BL21 Rosetta at 50 uM treated for 1 hr prior to trypsin digestion measured after 24 hrs by LC-MS/MS analysis in presence of ammonium bicarbonate and guanidium HCl

Question: For `O=[N+]([O-])c1ccc2c(c1)S(=O)(=O)C=C2`, which Activity (Homo sapiens [1]) is on record?
Answer: Its Activity is “Active”.

Question: And the Activity (Homo sapiens [2])?
Answer: Its Activity is “Active”.

Question: What about the Activity (Homo sapiens [3]) of the same compound?
Answer: The Activity was “Active”.

Question: And the Activity (Homo sapiens [4])?
Answer: The Activity was “Active”.

Question: And the Activity (Homo sapiens [5])?
Answer: The Activity was “inactive”.
